Measured values from the supplement of paper PMC4862054.

Legend:
Test in all cases: normalised response (% of control), CellTiter-Glo; higher = more viable cells (100 = DMSO, 0 = benzethonium chloride kill control)
Conditions in all cases: incubation time: 72 h
CAL-120 = test system: CAL-120
How it was run: (§1)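 In 384-well plates holding compound at 5 concentrations in 10-fold steps over a 10,000-fold range specific to each compound, breast cancer cell lines were seeded as 20 µl suspension and incubated 72 h. CellTox Green fluorescence was measured at 485/520 nm, after which CellTiter-Glo luminescence was measured following 10 min at room temperature. Plate signals were normalised to 0.1 % DMSO (100) and a positive kill control (0), and each value is the normalised signal at a single concentration.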

MDA-MB-436 = test system: MDA-MB-436
How it was run: as §1

HDQ-P1 = test system: HDQ-P1
How it was run: as §1

CAL-51 = test system: CAL-51
How it was run: as §1

BT-474 = test system: BT-474
How it was run: as §1

BT-549 = test system: BT-549
How it was run: as §1

DU-4475 = test system: DU-4475
How it was run: as §1

HCC1143 = test system: HCC1143
How it was run: as §1

SK-BR-3 = test system: SK-BR-3
How it was run: as §1

MCF-10A = test system: MCF-10A
How it was run: as §1

HCC1599 = test system: HCC1599
How it was run: as §1

MFM-223 = test system: MFM-223
How it was run: as §1

CAL-85-1 = test system: CAL-85-1
How it was run: as §1

MDA-MB-453 = test system: MDA-MB-453
How it was run: as §1

HCC1937 = test system: HCC1937
How it was run: as §1

MDA-MB-468 = test system: MDA-MB-468
How it was run: as §1

Hs578T = test system: Hs578T
How it was run: as §1

CAL-148 = test system: CAL-148
How it was run: as §1

MDA-MB-231 = test system: MDA-MB-231
How it was run: as §1

| Structure (SMILES) | normalised response (CAL-120) | normalised response (MDA-MB-436) | normalised response (HDQ-P1) | normalised response (CAL-51) | normalised response (BT-474) | normalised response (BT-549) | normalised response (DU-4475) | normalised response (HCC1143) | normalised response (SK-BR-3) | normalised response (MCF-10A) | normalised response (HCC1599) | normalised response (MFM-223) | normalised response (CAL-85-1) | normalised response (MDA-MB-453) | normalised response (HCC1937) | normalised response (MDA-MB-468) | normalised response (Hs578T) | normalised response (CAL-148) | normalised response (MDA-MB-231) |
| --- | --- | --- | --- | --- | --- | --- | --- | --- | --- | --- | --- | --- | --- | --- | --- | --- | --- | --- | --- |
| COc1cc2nccc(Oc3ccc(NC(=O)Nc4cc(C)on4)c(Cl)c3)c2cc1OC [Tivozanib] (10 nM) | 97.4% | 94.2% | 100% | 85.4% | 89.9% | 100% | 99.1% | 99.9% | 80.7% | 90.3% | 98.2% | 87.2% | 93.5% | 91.7% | 98.7% | 93.5% | 94.3% | 82.1% | 98.5% |
| CC(=O)Nc1cccc(-n2c(=O)n(C3CC3)c(=O)c3c(Nc4ccc(I)cc4F)n(C)c(=O)c(C)c32)c1 [Trametinib] (0.025 nM) | 106% | 100% | 98.6% | 115% | 111% | 94.9% | 99.2% | 95.5% | 110% | 96.3% | 101% | 100% | 102% | 109% | 96.5% | 99.4% | 99.5% | 111% | 104% |
| CC(=O)Nc1cccc(-n2c(=O)n(C3CC3)c(=O)c3c(Nc4ccc(I)cc4F)n(C)c(=O)c(C)c32)c1 [Trametinib] (0.25 nM) | 102% | 104% | 108% | 122% | 109% | 92.7% | 96.3% | 99.1% | 105% | 82.5% | 99.7% | 109% | 98.6% | 100% | 99.2% | 98.8% | 94.7% | 111% | 107% |
| CC1=C(/C=C/C(C)=C/C=C/C(C)=C/C(=O)O)C(C)(C)CCC1 [Tretinoin] (1 nM) | 98.7% | 107% | 98.7% | 102% | 102% | 104% | 101% | 99.5% | 107% | 105% | 92% | 99.2% | 98.5% | 97.1% | 106% | 102% | 102% | 102% | 101% |
| CC1=C(/C=C/C(C)=C/C=C/C(C)=C/C(=O)O)C(C)(C)CCC1 [Tretinoin] (10 nM) | 93.2% | 94.1% | 94.4% | 81% | 96.6% | 96.9% | 98.5% | 95.8% | 97% | 83.7% | 102% | 103% | 100% | 94.7% | 98% | 97.7% | 97.7% | 97.8% | 101% |
| COc1cc2c(NC3CCN(C(C)C)CC3)nc(C3CCCCC3)nc2cc1OCCCN1CCCC1 [UNC0638] (1 nM) | 104% | 90% | 103% | 117% | 91.1% | 103% | 88.9% | 94.6% | 90.8% | 84.2% | 76.7% | 87.1% | 97.4% | 95.6% | 95.3% | 90.5% | 99.7% | 86.8% | 93.3% |
| COc1cc2c(NC3CCN(C(C)C)CC3)nc(C3CCCCC3)nc2cc1OCCCN1CCCC1 [UNC0638] (10 nM) | 98% | 94.8% | 95.6% | 116% | 94.2% | 98.4% | 90.4% | 102% | 85.9% | 83% | 82.1% | 88% | 93.3% | 85.3% | 96.6% | 88.2% | 99.7% | 90.8% | 92.5% |
| Oc1ncc(N(CCCl)CCCl)c(O)n1 [Uracil mustard] (1 nM) | 98.6% | 95.8% | 98.8% | 115% | 105% | 89.4% | 95.6% | 102% | 99.7% | 105% | 105% | 101% | 94.2% | 105% | 103% | 107% | 99.7% | 101% | 97.2% |
| CCCCC(=O)OCC(=O)[C@]1(O)Cc2c(O)c3c(c(O)c2[C@@H](O[C@H]2C[C@H](NC(=O)C(F)(F)F)[C@H](O)[C@H](C)O2)C1)C(=O)c1c(OC)cccc1C3=O [Valrubicin] (0.5 nM) | 95.2% | 98.4% | 101% | 87.8% | 104% | 97.1% | 99.8% | 102% | 97.9% | 111% | 97.2% | 102% | 98.2% | 94.2% | 98.3% | 99.1% | 96% | 94% | 99.6% |
| CCCS(=O)(=O)Nc1ccc(F)c(C(=O)c2c[nH]c3ncc(-c4ccc(Cl)cc4)cc23)c1F [Vemurafenib] (1 nM) | 92.4% | 88% | 89.6% | 92.5% | 97.2% | 95% | 96.7% | 85.1% | 86.9% | 82.1% | 95.6% | 88% | 98% | 83.4% | 91.5% | 95% | 95.3% | 84.2% | 95.9% |
